Assay results reported in US5547975A, “Benzopyranopyrazolyl derivatives for the treatment of inflammation” (priority 1994, dated 1996).

Assays:
Human COX II = biological target: T1, Human COX II (Homo sapiens, UniProt P35354); experiment: Evaluation of COX II activity in vitro (recombinant enzyme, PGE2 ELISA); format: biochemical; details: 10 μM arachidonic acid, pre-incubation 10-20 minutes, pH 8.0; read-out: Human COX II ID50
T1 construct: made in house; host or cells: SF9 insect cells, recombinant baculovirus (transfer vector pVL1393)
T1 sequence (P35354 18-604): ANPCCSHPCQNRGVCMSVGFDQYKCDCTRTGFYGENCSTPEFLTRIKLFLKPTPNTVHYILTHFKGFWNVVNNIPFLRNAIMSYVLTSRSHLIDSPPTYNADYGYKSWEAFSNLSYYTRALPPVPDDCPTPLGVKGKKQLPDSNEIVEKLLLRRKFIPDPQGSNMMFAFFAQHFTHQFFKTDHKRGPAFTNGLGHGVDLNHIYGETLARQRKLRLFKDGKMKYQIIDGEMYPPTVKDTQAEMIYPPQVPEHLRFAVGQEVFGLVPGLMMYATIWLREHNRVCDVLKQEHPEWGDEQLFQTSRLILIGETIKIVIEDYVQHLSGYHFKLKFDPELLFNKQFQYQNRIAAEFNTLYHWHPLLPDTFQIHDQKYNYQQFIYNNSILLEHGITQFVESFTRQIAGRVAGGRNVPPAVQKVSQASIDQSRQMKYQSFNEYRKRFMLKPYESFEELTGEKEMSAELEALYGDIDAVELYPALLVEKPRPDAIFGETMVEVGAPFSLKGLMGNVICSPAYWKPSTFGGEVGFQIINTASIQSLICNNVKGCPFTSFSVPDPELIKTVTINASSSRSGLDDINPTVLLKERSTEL
Method: (§1) Evaluation of COX I and COX II activity in vitro
The COX II inhibition activity of the compounds of this invention illustrated in the Examples was determined by the following methods.
(§2) a. Preparation of recombinant COX baculoviruses
(§3) A 2.0 kb fragment containing the coding region of either human or murine COX-I or human or murine COX-II was cloned into a BamH1 site of the baculovirus transfer vector pVL1393 (Invitrogen) to generate the baculovirus transfer vectors for COX-I and COX-II in a manner similar to the method of D. R. O'Reilly et al (Baculovirus Expression Vectors: A Laboratory Manual (1992)). Recombinant baculoviruses were isolated by transfecting 4 μg of baculovirus transfer vector DNA into SF9 insect cells ([…]) along with 200 ng of linearized baculovirus plasmid DNA by the calcium phosphate method. See M. D. Summers and G. E. Smith, A Manual of Methods for Baculovirus Vectors and Insect Cell Culture Procedures, Texas Agric. Exp. Station Bull. 1555 (1987). Recombinant viruses were purified by three rounds of plaque purification and high titer (10E7-10E8 pfu/ml) stocks of virus were prepared. For large scale production, SF9 insect cells were infected in 10 liter fermentors (0.5×10^6 /ml) with the recombinant baculovirus stock such that the multiplicity of infection was 0.1. After 72 hours the cells were centrifuged and the cell pellet homogenized in Tris/Sucrose (50 mM: 25%, pH 8.0) containing 1% 3-[(3-cholamidopropyl)dimethylammonio]-1-propanesulfonate (CHAPS). The homogenate was centrifuged at 10,000'G for 30 minutes, and the resultant supernatant was stored at -80° C. before being assayed for COX activity.
(§4) b. Assay for COX I and COX II activity:
(§5) COX activity was assayed as PGE2 formed/μg protein/time using an ELISA to detect the prostaglandin released. CHAPS-solubilized insect cell membranes containing the appropriate COX enzyme were incubated in a potassium phosphate buffer (50 mM, pH 8.0) containing epinephrine, phenol, and heme with the addition of arachidonic acid (10 μM). Compounds were pre-incubated with the enzyme for 10-20 minutes prior to the addition of arachidonic acid. Any reaction between the arachidonic acid and the enzyme was stopped after ten minutes at 37° C./room temperature by transferring 40 μl of reaction mix into 160 μl ELISA buffer and 25 μM indomethacin. The PGE2 formed was measured by standard ELISA technology (Cayman Chemical).

Human COX I = biological target: T2, Human COX I (Homo sapiens, UniProt P23219); experiment: Evaluation of COX I activity in vitro (recombinant enzyme, PGE2 ELISA); format: biochemical; details: 10 μM arachidonic acid, pre-incubation 10-20 minutes, pH 8.0; read-out: Human COX I ID50
T2 construct: made in house; host or cells: SF9 insect cells, recombinant baculovirus (transfer vector pVL1393)
From the text: as §1, §2, §3, §4, §5

[1] = test system: carrageenan-induced hyperalgesic foot withdrawal; experiment: Rat Carrageenan-induced Analgesia Test; format: in vivo, rat (male Sprague-Dawley); details: oral, @ 30 mg/ka body weight, 3 hours after carrageenan injection
Method: Rat Carrageenan-induced Analgesia Test
The analgesia test using rat carrageenan was performed with materials, reagents and procedures essentially as described by Hargreaves, et al., (Pain, 32, 77 (1988)). Male Sprague-Dawley rats were treated as previously described for the Carrageenan Foot Pad Edema test. Three hours after the injection of the carrageenan, the rats were placed in a special plexiglass container with a transparent floor having a high intensity lamp as a radiant heat source, positionable under the floor. After an initial twenty minute period, thermal stimulation was begun on either the injected foot or on the contralateral uninjected foot. A photoelectric cell turned off the lamp and timer when light was interrupted by paw withdrawal. The time until the rat withdraws its foot was then measured. The withdrawal latency in seconds was determined for the control and drug-treated groups, and percent inhibition of the hyperalgesic foot withdrawal determined.

[2] = test system: carrageenan foot pad edema (rat paw edema); experiment: Rat Carrageenan Foot Pad Edema Test; format: in vivo, rat (male Sprague-Dawley); details: oral, @ 30 mg/ka body weight, 3 hours after carrageenan injection
Method: Rat Carrageenan Foot Pad Edema Test
Male Sprague-Dawley rats were selected in each group so that the average body weight was as close as possible. Rats were fasted with free access to water for over sixteen hours prior to the test. […] One hour later a subplantar injection of 0.1 mL of 1% solution of carrageenan/sterile 0.9% saline was administered and the volume of the injected foot was measured with a displacement plethysmometer connected to a pressure transducer with a digital indicator. Three hours after the injection of the carrageenan, the volume of the foot was again measured.

T2 sequence (P23219 24-599): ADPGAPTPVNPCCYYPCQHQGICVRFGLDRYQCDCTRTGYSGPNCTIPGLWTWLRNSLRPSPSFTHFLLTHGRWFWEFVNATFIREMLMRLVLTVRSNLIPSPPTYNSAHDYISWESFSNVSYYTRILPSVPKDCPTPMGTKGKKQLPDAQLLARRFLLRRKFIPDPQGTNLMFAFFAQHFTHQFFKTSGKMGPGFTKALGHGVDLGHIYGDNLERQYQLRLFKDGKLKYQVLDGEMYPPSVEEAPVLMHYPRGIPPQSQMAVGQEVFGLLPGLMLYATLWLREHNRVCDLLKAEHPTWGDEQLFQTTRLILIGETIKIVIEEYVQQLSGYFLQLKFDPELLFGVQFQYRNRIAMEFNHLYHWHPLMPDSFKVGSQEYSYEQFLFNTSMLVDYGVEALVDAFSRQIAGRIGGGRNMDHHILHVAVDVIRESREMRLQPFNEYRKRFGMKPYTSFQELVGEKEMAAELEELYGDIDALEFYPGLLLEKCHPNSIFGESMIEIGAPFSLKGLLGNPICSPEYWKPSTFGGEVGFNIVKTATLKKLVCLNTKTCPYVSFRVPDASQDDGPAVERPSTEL

Compound | IC50 (Human COX II) [µM] | IC50 (Human COX I) [µM] | ANALGESIA % Inhibition [1] [%] | RAT PAW EDEMA % Inhibition [2] [%]
COc1ccc2c(c1F)CSc1c(C(F)(F)F)nn(-c3ccc(S(C)(=O)=O)cc3)c1-2 [Example 2, 1,5-Dihydro-6-fluoro-7-methoxy-1-[(4-methylsulfonyl)phenyl]-3-(trifluoromethyl)-[2]benzothiopyrano[4,3-c]pyrazole] | < 0.1 | > 100 | 29 | 
NS(=O)(=O)c1ccc(-n2nc(C(F)(F)F)c3c2-c2cc(Cl)sc2CS3)cc1 [Example 21, 4-[7-Chloro-1,5-dihydro-3-trifluoromethyl-thieno[3',2':4,5]thiopyrano[3,2-c]pyrazol-1-yl]benzenesulfonamide] | < 0.1 | 8.7 |  | 26
COc1ccc2c(c1F)CSCc1c(C(F)(F)F)nn(-c3ccc(S(N)(=O)=O)cc3)c1-2 [Example 30, 4-[4,6-dihydro-7-fluoro-8-methoxy-3-(trifluoromethyl)-[2]benzothiepino[5,4-c]pyrazol-1-yl]benzenesulfonamide] | 2.2 | 73.4 |  | 
